Reference: US9512169B2, “3-substituted estra-1,3,5(10),16-tetraene derivatives, methods for the production thereof, pharmaceutical preparations containing same, and use thereof for the production of medicaments” (BAYER PHARMA AKTIENGESELLSCHAFT, priority 2012, dated 2016)
pIC50: −log10 of the molar value. Several values for one entry are separate records, joined by “and”; a condition that tells them apart may be missing. Identical values can stand only once.

Tests used:
AKR1C3 [1] = target: T1, AKR1C3 (Homo sapiens (Human), UniProt P42330); test: AKR1C3 enzyme inhibition assay (Coumberone to Coumberol fluorescence); type: biochemical; settings: recombinant human AKR1C3, 15 min pre-incubation, 90 min at 22° C.; repeated lines = two experimental determinations
Protocol: The AKR1C3-inhibitory activity of the substances of the present invention was measured in the AKR1C3 assay described in the paragraphs below.
Essentially, the enzyme activity is measured by quantification of the Coumberol from Coumberone (Halim, M., Yee, D. J., and Sames, D., J. AM. CHEM. SOC. 130, 14123-14128 (2008) and Yee, D. J., Balsanek, V., Bauman, D. R., Penning, T. M., and Sames, D., Proc. Natl. Acad. Sci. USA 103, 13304-13309 (2006)). In this test, the increase of the highly fluorescent Coumberol by NADPH- (nicotinamide adenine dinucleotide phosphate)-dependent reduction of the non-fluorescent Coumberone by AKR1C3 can be determined.
The enzyme used was recombinant human AKR1C3 (Aldo-keto reductase family 1 member C3) (GenBank Accession No. NM_003739). This was expressed in E. coli as GST (glutathione S transferase) fusion protein and purified by glutathione Sepharose affinity chromatography. The GST was removed by digestion with thrombin and subsequent size exclusion chromatography (Dufort, I., Rheault, P., Huang, X F., Soucy, P., and Luu-The, V., Endocrinology 140, 568-574 (1999)).
For the assay, 50 nl of a 100-fold concentrated solution of the test substance in DMSO were pipetted into a black low-volume 384-well microtiter plate (Greiner Bio-One, Frickenhausen, Germany), 2.0 μl of a solution of AKR1C3 in assay buffer [50 mM potassium phosphate buffer pH 7, 1 mM DTT, 0.0022% (w/v) Pluronic F-127, 0.01% BSA (w/v) and protease inhibitor cocktail (Complete, EDTA-free Protease Inhibitor Cocktail from Roche)] were added and the mixture was incubated for 15 min to allow pre-binding of the substances to the enzyme prior to the enzyme reaction. The enzyme reaction was then started by addition of 3 μl of a solution of NADPH (16.7 μM→final concentration in 5 μl of assay volume is 10 μM) and Coumberone (0.5 μM→final concentration in 5 μl of assay volume is 0.3 μM) in assay buffer, and the resulting mixture was incubated at 22° C. for the reaction time of 90 min. The concentration of the AKR1C3 was adapted to the respective activity of the enzyme preparation and adjusted such that the assay was carried out in the linear range. Typical concentrations were in the region of 1 nM. The reaction was stopped by addition of 5 μl of a stop solution consisting of the inhibitor EM-1404 [F. Labrie et al. U.S. Pat. No. 6,541,463, 2003] (2 μM→final concentration in […] is 1 μM). The fluorescence of the Coumberole was then measured at 520 nm (excitation at 380 nm) using a suitable measuring instrument (Pherastar from BMG Labtechnologies). The intensity of the fluorescence was used as a measure of the amount of Coumberole formed and thus of the enzyme activity of AKR1C3. The data were normalized (enzyme reaction without inhibitor=0% inhibition; all other assay components, but no enzyme=100% inhibition).
As described, the pharmacological substances claimed were examined for their inhibitory activity on the AKR1C3 enzyme (see Table 1). The compounds claimed show a strong inhibition of AKR1C3 in vitro (IC50 values <200 nM) and in most cases even IC50 values <50 nM.

AKR1C3 [2] = target: T1, AKR1C3; test: AKR1C3 inhibition in a cell-based system (HEK293 cells transfected with AKR1C3 expression plasmid, coumberol fluorescence); settings: HEK293 cells transfected with AKR1C3, incubation overnight; repeated lines = independent determinations; read-out: Cellular AKR1C3 inhibition IC50
Protocol: The inhibition of AKR1C3 by the substances described in the present invention was measured in a cell-based assay using […] as substrate for the AKR1C3 (Halim, M., Yee, D. J., and Sames, D., J. AM. CHEM. SOC. 130, 14123-14128 (2008) and Yee, D. J., Balsanek, V., Bauman, D. R., Penning, T. M., and Sames, D., Proc. Natl. Acad. Sci. USA 103, 13304-13309 (2006)) (cf. Example 20).
The cell system used were HEK293 cells (ATCC, USA) (cell culture medium: DMEM, 1.5 g glucose, 10% FCS, PSG). The cells were transfected in an AKR1C3 expression plasmid (pCMV6-AC-AKR1C3, GenBank Accession No. NM_003739.4) overnight (X-tremeGENE HP, Roche). The next morning, the cells were sown in black 96well cell culture plates at a cell density of 40000 cells/well (Greiner Bio-One, Frickenhausen, Germany). After 7 h, the cells were incubated with the test substances (dissolved in 100× concentration in DMSO, final concentration between 10^−11M and 10^−5M) and […] (dissolved in cell culture medium, final concentration 5×10^−6M) overnight. The next morning, the fluorescence of coumberol was measured at 535 nm (excitation at 355 nm) using a suitable measuring instrument (Mithras, from Berthold). The fluorescence intensity was used as a measure of the amount of coumberol formed and thus of the enzyme activity of AKR1C3. The data were normalized (transfected cells without inhibitor, only DMSO=0% inhibition; transfected cells, 10 μM inhibitor EM-1404 [F. Labrie et al. U.S. Pat. No. 6,541,463, 2003]=100% inhibition), and the IC50 values were calculated using a 4-parameter fit.
In the cell-based assay described above, the pharmacological substances claimed were examined for their inhibitory activity on the AKR1C3 enzyme (see Table 2).

T1 sequence (P42330 whole entry): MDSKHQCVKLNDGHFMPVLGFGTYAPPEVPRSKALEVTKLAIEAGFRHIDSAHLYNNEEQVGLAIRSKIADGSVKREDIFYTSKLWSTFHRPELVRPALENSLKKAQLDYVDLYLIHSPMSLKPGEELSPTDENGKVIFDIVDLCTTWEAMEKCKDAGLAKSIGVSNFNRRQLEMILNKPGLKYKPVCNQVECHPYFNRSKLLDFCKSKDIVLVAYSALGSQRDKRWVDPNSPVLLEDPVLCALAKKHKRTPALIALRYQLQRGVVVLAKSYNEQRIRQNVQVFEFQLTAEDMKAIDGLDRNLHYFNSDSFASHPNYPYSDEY

CC(Oc1ccc2c(c1)CC[C@@H]1[C@@H]2CC[C@]2(C)C(c3cncc(F)c3)=CC[C@@H]12)C(=O)O (mixture of isomers) [Example 10, (RS)-2-{[17-(5-Fluoropyridin-3-yl)estra-1,3,5(10),16-tetraen-3-yl]oxy}propanoic acid]
pIC50 (AKR1C3 [1]): 8.57

CCC(Oc1ccc2c(c1)CC[C@@H]1[C@@H]2CC[C@]2(C)C(c3cncc(F)c3)=CC[C@@H]12)C(=O)O (mixture of isomers) [Example 11, (RS)-2-{[17-(5-Fluoropyridin-3-yl)estra-1,3,5(10),16-tetraen-3-yl]oxy}butanoic acid]
pIC50 (AKR1C3 [1]): 8.60

COCC(Oc1ccc2c(c1)CC[C@@H]1[C@@H]2CC[C@]2(C)C(c3cncc(F)c3)=CC[C@@H]12)C(=O)O (mixture of isomers) [Example 12, (RS)-2-{[17-(5-Fluoropyridin-3-yl)estra-1,3,5(10),16-tetraen-3-yl]oxy}-3-methoxy-propanoic acid]
pIC50 (AKR1C3 [1]): 8.40

CC(Oc1ccc2c(c1)CC[C@@H]1[C@@H]2CC[C@]2(C)C(c3cccnc3)=CC[C@@H]12)C(=O)O (mixture of isomers) [Example 13, (RS)-2-{[17-(3-Pyridyl)estra-1,3,5(10),16-tetraen-3-yl]oxy}propanoic acid]
pIC50 (AKR1C3 [1]): 8.55

CC(Oc1ccc2c(c1)CC[C@@H]1[C@@H]2CC[C@]2(C)C(c3cncc(F)c3)=CC[C@@H]12)C(N)=O (mixture of isomers) [Example 14, (RS)-2-{[17-(5-Fluoropyridin-3-yl)estra-1,3,5(10),16-tetraen-3-yl]oxy}propanamide]
pIC50 (AKR1C3 [1]): 7.70

C[C@]12CC[C@@H]3c4ccc(OCC(O)CO)cc4CC[C@H]3[C@@H]1CC=C2c1cncc(F)c1 (mixture of isomers) [Example 17, (RS)-3-{[17-(5-Fluoropyridin-3-yl)estra-1,3,5(10),16-tetraen-3-yl]oxy}propan-1,2-diol]
pIC50 (AKR1C3 [1]): 7.60

C[C@]12CC[C@@H]3c4ccc(OC(C(=O)O)c5ccccc5)cc4CC[C@H]3[C@@H]1CC=C2c1cncc(F)c1 (mixture of isomers) [Example 18, (RS)-{[17-(5-Fluoropyridin-3-yl)estra-1,3,5(10),16-tetraen-3-yl]oxy}(phenyl)acetic acid]
pIC50 (AKR1C3 [1]): 8.00

C[C@]12CC[C@@H]3c4ccc(OCC(=O)O)cc4CC[C@H]3[C@@H]1CC=C2c1cncc(C(F)(F)F)c1 [Example 2, ({17-[5-(Trifluoromethyl)pyridin-3-yl]estra-1,3,5(10),16-tetraen-3-yl}oxy)acetic acid]
pIC50 (AKR1C3 [2]): 7.32 and 7.17 | pIC50 (AKR1C3 [1]): 7.48 and 7.64

C[C@]12CC[C@@H]3c4ccc(OCC(=O)O)cc4CC[C@H]3[C@@H]1CC=C2c1cncc(F)c1 [Example 3, {[17-(5-Fluoropyridin-3-yl)estra-1,3,5(10),16-tetraen-3-yl]oxy}acetic acid]
pIC50 (AKR1C3 [2]): 7.31 and 7.25 and 7.51 | pIC50 (AKR1C3 [1]): 7.80 and 8.07

Cc1ccc(C2=CC[C@H]3[C@@H]4CCc5cc(OCC(=O)O)ccc5[C@H]4CC[C@]23C)cn1 [Example 4, {[17-(6-Methylpyridin-3-yl)estra-1,3,5(10),16-tetraen-3-yl]oxy}acetic acid]
pIC50 (AKR1C3 [1]): 6.87

C[C@]12CC[C@@H]3c4ccc(OCC(=O)O)cc4CC[C@H]3[C@@H]1CC=C2c1cncnc1 [Example 5, {[17-(Pyrimidin-5-yl)estra-1,3,5(10),16-tetraen-3-yl]oxy}acetic acid]
pIC50 (AKR1C3 [1]): 7.05

C[C@]12CC[C@@H]3c4ccc(OCC(=O)O)cc4CC[C@H]3[C@@H]1CC=C2c1cncc(C(=O)O)c1 [Example 6, 5-[3-(Carboxymethoxy)estra-1,3,5(10),16-tetraen-17-yl]nicotinic acid]
pIC50 (AKR1C3 [1]): 8.04

Cc1cc(C2=CC[C@H]3[C@@H]4CCc5cc(OCC(=O)O)ccc5[C@H]4CC[C@]23C)cnn1 [Example 7, {[17-(6-Methylpyridazin-4-yl)estra-1,3,5(10),16-tetraen-3-yl]oxy}acetic acid]
pIC50 (AKR1C3 [1]): 8.85

CC(C)(COc1ccc2c(c1)CC[C@@H]1[C@@H]2CC[C@]2(C)C(c3cncc(F)c3)=CC[C@@H]12)C(=O)O [Example 8, 3-{[17-(5-Fluoropyridin-3-yl)estra-1,3,5(10),16-tetraen-3-yl]oxy}-2,2-dimethylpropanoic acid]
pIC50 (AKR1C3 [2]): 6.77 and 6.66 | pIC50 (AKR1C3 [1]): 7.92 and 7.96

C[C@]12CC[C@@H]3c4ccc(OCCCC(=O)O)cc4CC[C@H]3[C@@H]1CC=C2c1cncc(F)c1 [Example 9, 4-{[17-(5-Fluoropyridin-3-yl)estra-1,3,5(10),16-tetraen-3-yl]oxy}butanoic acid]
pIC50 (AKR1C3 [1]): 7.38

C[C@]12CC[C@@H]3c4ccc(OCCCO)cc4CC[C@H]3[C@@H]1CC=C2c1cncc(F)c1 [Example 15, 3-{[17-(5-Fluoropyridin-3-yl)estra-1,3,5(10),16-tetraen-3-yl]oxy}propan-1-ol]
pIC50 (AKR1C3 [1]): 7.27

CC(C)(CO)COc1ccc2c(c1)CC[C@@H]1[C@@H]2CC[C@]2(C)C(c3cncc(F)c3)=CC[C@@H]12 [Example 16, 3-{[17-(5-Fluoropyridin-3-yl)estra-1,3,5(10),16-tetraen-3-yl]oxy}-2,2-dimethylpropan-1-ol]
pIC50 (AKR1C3 [1]): 6.91

CCNC(=O)COc1ccc2c(c1)CC[C@@H]1[C@@H]2CC[C@]2(C)C(c3cncc(C(F)(F)F)c3)=CC[C@@H]12 [Example 19, N-Ethyl-2-({17-[5-(trifluoromethyl)pyridin-3-yl]estra-1,3,5(10),16-tetraen-3-yl}oxy)acetamide]
pIC50 (AKR1C3 [1]): 7.28
